The record followed here is PubChem BioAssay (NCI).

Common to all, as to experiment: growth of human tumour cells (NCI), 48 h
The test system of assay [1] is HOP-92 NSCLC.
For assay [2], the system named is HL-60(TB) leukemia.
Assay [3] has as its system HT29 colon.
For assay [4], the system named is M14 melanoma.
The subject of assay [5] is SW-620 colon.
Assay [6] relates to UO-31 renal.
The subject of assay [7] is COLO 205 colon.
The subject of assay [8] is NCI-H226 lung.
Assay [9] has as its system SF-539 CNS.
Assay [10] concerns HCT-116 colon.

Structures are written as SMILES. “And” between values parts separate entries of the source, which are not always exact repeats. Equal entries are not always repeated.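 Method: 48-hour compound exposure of cells in 96-well plates, five concentrations, linear interpolation of endpoints. At the GI50, growth is halved. TGI marks complete inhibition of growth.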

`CCN(CC)CCCC(C)Nc1ccnc2cc(Cl)ccc12` (configuration not stated): the GI50 in assay [1] was 52 µM; in assay [2], 36.1 µM; in assay [3], 45.7 µM; in assay [4] it was 18.5 µM; in assay [6], 84.8 µM; in [7], 50.8 µM. The GI50 in assay [8] was above 100 µM; in [10] it was 25.6 µM. For the same compound, the TGI is > 100 µM and 44.9 µM in assay [1]; > 100 µM and 34.2 µM in [2]; above 100 µM in assay [3]; 32.5 µM and 28.4 µM in [4]; above 100 µM in assay [5]; > 100 µM and 46.4 µM in assay [6]. Further, the TGI was > 100 µM and 38.7 µM in assay [7]; above 100 µM in assay [8]; 35.7 µM and 32.5 µM in [9]; > 100 µM and 42 µM in [10].

For the compound `Cc1c(-c2ccc(C3CCCCC3)cc2)nc2ccc(F)cc2c1C(=O)O`, the GI50 in assay [1] is 15 µM; in [2], 0.335 µM; in assay [3], 0.311 µM; in assay [4] it was 0.788 µM; in assay [5], 0.228 µM; in assay [6] it was 0.721 µM. In addition, the GI50 in assay [7] was 0.185 µM; in assay [8] it was 3.08 µM; in assay [9], 0.0701 µM; in assay [10], 0.0508 µM. Also, the TGI in assay [1] is 97.5 µM; in assay [2], above 100 µM; in [3], above 100 µM; in [4] it was above 100 µM; in [5], above 100 µM; in [6], above 100 µM. Moreover, the TGI in assay [7] is above 100 µM; in [8] it was above 100 µM; in assay [9], above 70 µM; in assay [10], above 100 µM.

For `COc1cc2c(c(OC)c1OC)-c1ccc(O)cc1[C@@H](NC(C)=O)CC2`, the TGI is above 100 µM in [1]; 0.0645 µM in [2]; 0.141 µM in [3]; above 100 µM in assay [5]; above 51.2 µM in assay [6]; 0.0859 µM in [7]. The TGI in assay [8] and in assay [10] was above 100 µM in each case. Besides, the GI50 in [2] is 0.0227 µM; in assay [3], 0.0339 µM; in [4] it was 0.033 µM; in assay [5], 0.0409 µM; in assay [6], 0.279 µM; in assay [7], 0.0319 µM. Moreover, the GI50 in [8] is 0.117 µM; in assay [9], 0.0261 µM; in assay [10], 0.0395 µM.

Turning to `CC1=C2CC(C)(C)/C=C\C(=O)/C(C)=C\C3=C[C@H](C)C[C@]3(O2)C1=O`, the TGI in [1] is 2.88 µM; in assay [2], 2.43 µM; in [3] it was 2.76 µM; in [4], 1.27 µM; in assay [5] it was 1.49 µM; in assay [6] it was 2.61 µM. For the same compound, the TGI is 9.27 µM in assay [7], 8.49 µM in [8], 3.09 µM in assay [9] and 1.09 µM in assay [10].

In the case of `C=C(CN1CCN(c2ccc(C(F)(F)F)cc2)CC1)c1ccc(C(=O)Nc2ccccc2N)cc1`, the GI50 in assay [1] was 3.95 µM; in assay [2], 0.0732 µM; in assay [3] it was above 75.7 µM; in assay [4], above 90.5 µM; in assay [5], above 78.8 µM; in assay [6], 0.967 µM. Moreover, the GI50 is above 100 µM in assay [7], 7.51 µM in [8], 8.15 µM in [9] and 11.4 µM in [10]. For the same compound, the TGI in [1] is 23.7 µM; in assay [2], 0.279 µM; in [3] it was above 100 µM; in assay [4], above 100 µM; in assay [5] it was above 100 µM; in assay [6], above 73.1 µM. Further, the TGI in [7] is above 100 µM; in assay [8], above 60.5 µM; in [9] it was above 100 µM; in assay [10] it was above 100 µM.

For `O=C(O)[C@H](Cc1c[nH]c2ccccc12)N1C(=O)c2ccccc2C1=O`, the results for the GI50 in [1] and in [2] were 72.3 µM and above 100 µM, respectively. The TGI in assay [1], in assay [2], in [3], in assay [4], in assay [5] and in assay [6] was above 100 µM throughout. In addition, the TGI in assay [7], in assay [8], in assay [9] and in [10] was above 100 µM each time.

For the compound `NC(N)=NCC1CCCCCCN1` (configuration not stated), the TGI in assay [1], in [2], in [3], in assay [4], in assay [5] and in assay [6] was above 100 µM in each case. The TGI in [7], in assay [8], in [9] and in [10] was above 100 µM throughout.

For `COC(=O)N1CC(=O)C(C(=O)NC23CC4CC(CC(C4)C2)C3)C1` (configuration not stated), the TGI in assay [1], in [2], in assay [3], in assay [4], in assay [5] and in assay [6] was above 100 µM each time. Further, the TGI in assay [7], in assay [8], in assay [9] and in assay [10] was above 100 µM throughout.

Regarding `COc1ccc([N+](=O)[O-])c2c(NCCCN(C)C)ccnc12`, the TGI in assay [1] was 4.38 µM; in assay [2], 22.8 µM; in assay [3], above 32.4 µM; in [4], 20.8 µM; in assay [5], 32.4 µM; in assay [6], 17.3 µM. The TGI in [7] stood at 7.17 µM; in assay [8], 30.2 µM; in assay [9], 17 µM; in assay [10] it was 22.8 µM.

Turning to `CCCCCCCCCCCCCCCCCc1nccn1CCOCCO`, the GI50 in [1] is 2.33 µg/mL; in assay [2], 7.56 µg/mL; in assay [3] it was 4.59 µg/mL; in [4] it was 6.69 µg/mL; in assay [5] it was 6.19 µg/mL; in [6], 5.68 µg/mL. Further, the GI50 in assay [7] was 6.07 µg/mL; in assay [8], 4.36 µg/mL; in assay [9], 5.74 µg/mL; in assay [10], 5.94 µg/mL. In addition, the TGI in assay [1] was determined as 7.98 µg/mL; in [2] it was 15.2 µg/mL; in assay [3], 10.1 µg/mL; in assay [4], 13 µg/mL; in assay [5] it was 11.7 µg/mL; in assay [6], 11.6 µg/mL. Besides, the TGI in assay [7] worked out at 11.4 µg/mL; in [8], 10 µg/mL; in assay [9], 11.1 µg/mL; in [10], 11.9 µg/mL.

For the compound `O=C(O)C[C@@H](Cl)[C@H](NC(=O)OCc1ccccc1)C(=O)O`, the TGI in assay [1], in [2], in [3], in assay [4], in assay [5] and in [6] was above 100 µM throughout. For the same compound, the TGI in [7], in [8], in [9] and in [10] was above 100 µM in each case.

In the case of `O=C1/C=C/[C@@H](O)[C@@H]2C[C@@H](O)C[C@H]2/C=C/CCC[C@H](CCc2cccc3ccccc23)O1`, the GI50 was 12.3 µM in assay [1]; 0.0923 µM in [2]; 0.0347 µM in [3]; 0.0492 µM in assay [4]; 0.0518 µM in assay [5]; 0.046 µM in assay [6]. In addition, the GI50 in assay [7] was 0.0659 µM; in [8], 0.0178 µM; in assay [9] it was 0.121 µM; in assay [10] it was 0.12 µM. The TGI in assay [1] was 26.4 µM; in assay [2], 0.366 µM; in [3], 0.373 µM; in assay [4] it was 8.58 µM; in assay [5], 0.451 µM; in assay [6], 12.3 µM. The TGI in assay [7] was determined as 0.152 µM; in assay [8], 0.0351 µM; in assay [9] it was 16.3 µM; in assay [10], 0.283 µM.

Turning to `O=C(O)/C(Cl)=C(\Cl)C(=O)c1ccccc1`, the TGI in [1], in assay [2], in assay [3], in assay [4], in [5] and in assay [6] was above 100 µM in each case. Further, the TGI in assay [7], in assay [8], in assay [9] and in assay [10] was above 100 µM in each case.

`CO[C@H]1C=CO[C@@]2(C)Oc3c(C)c(O)c4c(O)c(c(CN5CCN(C)CC5)c(O)c4c3C2=O)NC(=O)/C(C)=C\C=C[C@H](C)[C@H](O)C(C)[C@@H](O)C(C)[C@H](OC(C)=O)[C@@H]1C` (some centres not stated): the TGI in assay [1] was above 100 µM; in assay [2], 83.7 µM; in assay [3], above 100 µM; in assay [4], above 75 µM; in [5], above 100 µM; in assay [6], above 94.4 µM. Also, the TGI in assay [7] is 25.2 µM; in assay [8], above 100 µM; in assay [9] it was above 68.5 µM; in assay [10], 35.9 µM.

Consider `O=C1C(=O)N(c2ccc(Cl)cc2)C(=O)C(=O)C1c1nc2ccccc2o1`, for which the TGI in assay [1], in assay [2], in assay [3], in assay [4], in assay [5] and in [6] was above 100 µM each time. In addition, the TGI in assay [7], in assay [8], in [9] and in assay [10] was above 100 µM throughout.

In the case of `CC1=CC(C)=NN=C(N)N1S(=O)(=O)c1cc(C)c(Cl)cc1SCc1ccccc1`, the GI50 is 3.82 µM in assay [1]; 6.75 µM in assay [2]; 24.5 µM in assay [3]; 21.4 µM in [4]; 24.8 µM in [5]; 5.18 µM in [6]. For the same compound, the GI50 in assay [7] is 27.9 µM; in assay [8] it was 58.5 µM; in assay [9] it was above 100 µM; in assay [10] it was 7.2 µM. Also, the TGI was 38.8 µM in assay [1]; above 100 µM in [2]; above 100 µM in assay [3]; above 100 µM in [4]; above 100 µM in [5]; above 100 µM in assay [6]. Moreover, the TGI in assay [7], in assay [8], in [9] and in assay [10] was above 100 µM each time.
